Reference: patent US20230035586A1, “Salts of R-ketorolac” (Revere Pharmaceuticals, Inc., priority 2019, published 2023)

What was measured:
[1] = in vivo; cited from earlier work
[2] = Dynamic Vapor Sorption (DVS) moisture sorption/desorption; type: physicochemical; conditions: for weight gain from 5-75% RH / weight gain from 5-75% RH, moles of H2O / weight gain above 75% RH / weight gain above 75% RH, moles of H2O: DVS sorption; for weight gain above 75% RH / weight gain above 75% RH, moles of H2O: above 75% RH (up to 95% RH); for form change after DVS, based on XRPD: XRPD of post-DVS solids
Method: DVS analysis (FIG. 5) was conducted by first equilibrating at ambient RH, and then dropping to 5% RH. It was then increased to 95% RH and cycled back to 5% RH. The sample was held at 5% RH until XRPD analysis. Upon equilibration from ambient RH (-48%) to 5% RH, the sample loses 0.4 wt %, equivalent to ˜0.1 moles of H2O. From 5-75% RH, the material undergoes a 1.2 wt % gain (˜0.25 moles of H2O). Above 75% RH, the material gains ˜12 wt % (˜3 moles of H2O).
The crystalline salt of R-ketorolac and meglumine was analyzed by DVS (FIG. 10). […] Upon equilibration from ambient RH (˜50%) to 5% RH, the sample loses 0.1 wt %, equivalent to <0.1 mole of H2O. From 5-75% RH, the material undergoes a 0.9 wt % gain (˜0.25 moles of H2O). Above 75% RH, the material gains ˜37 wt % (>12 moles of H2O). Upon desorption to 5% RH, which occurs with hysteresis, the sample retains ˜9.6 wt % (˜2.7 moles of H2O).
Moisture sorption/desorption data were collected on a VTI SGA-100 Vapor Sorption Analyzer. NaCl and PVP were used as calibration standards. Samples were not dried prior to analysis. Sorption and desorption data were collected over a range from 5% to 95% RH at 10% RH increments under a nitrogen purge. The equilibrium criterion used for analysis was less than 0.0100% weight change in 5 minutes with a maximum equilibration time of 3 hours. Data were not corrected for the initial moisture content of the samples.

SMILES | tolerability in rat studies [1] | weight retained upon desorption to 5% RH ([2]; DVS desorption to 5% RH) [wt %] | weight retained upon desorption to 5% RH, moles of H2O ([2]; DVS desorption to 5% RH) | weight gain from 5-75% RH [2] [wt %] | weight gain from 5-75% RH, moles of H2O [2] | weight gain above 75% RH [2] [wt %] | weight gain above 75% RH, moles of H2O [2] | hygroscopicity above 75% RH ([2]; DVS, above 75% RH) | weight loss upon equilibration from ambient RH to 5% RH ([2]; DVS) [wt %] | weight loss upon equilibration from ambient RH to 5% RH, equivalent moles of H2O ([2]; DVS) | hygroscopicity below 75% RH ([2]; DVS, below 75% RH) | form change after DVS, based on XRPD [2] | moisture after desorption to 5% RH (in words) ([2]; DVS desorption to 5% RH, small hysteresis)
O=C(c1ccccc1)c1ccc2n1CC[C@H]2C(=O)O [R-ketorolac] | much better tolerated than S-ketorolac |  |  |  |  |  |  |  |  |  |  |  | 
CNCC(O)C(O)C(O)C(O)CO.O=C(c1ccccc1)c1ccc2n1CCC2C(=O)O (stereo not drawn) [R-ketorolac meglumine crystalline salt, R-ketorolac meglumine salt] |  | ~9.6 | ~2.7 moles of H2O | 0.9 | ~0.25 moles of H2O | ~37 | > 12 moles of H2O | highly hygroscopic | 0.1 | < 0.1 moles of H2O | limited hygroscopicity | form change is not observed | 
O=C(c1ccccc1)c1ccc2n1CC[C@@H]2C(=O)O [S-ketorolac] | severe dose limiting toxicities |  |  |  |  |  |  |  |  |  |  |  | 
NC(CO)(CO)CO.O=C(c1ccccc1)c1ccc2n1CC[C@H]2C(=O)O [R-ketorolac tromethamine salt] |  |  |  | 1.2 | ~0.25 moles of H2O | ~12 | ~3 moles of H2O |  | 0.4 | ~0.1 moles of H2O |  | form change is not observed | all the gained moisture is lost
